# Assays:
# [1] = tested on: human malignant glioma cell U-251; assay: Human tumor xenograft model in nude mice; format: in vivo, nude mice (nu/nu); settings: U-251 xenograft, 30 mg/kg oral, 5 times a week for 3 weeks, end point 4 weeks; low = active
# Description: (§1) (7) Drug administration of human tumor xenograft model and nude mice tumor transplantation model: (see Harrison S D Jr; Growth of human tumor cells in athymic mice; J Natl Cancer Inst. 1991 Oct. 16; 83 (20): 1509).
# (§2) T cell deficiency nude mice (nu/nu) (male, 6-week old) are bought from Charles River Lab, and are raised in pathogen-free environment according to guidelines of animal raising and using committee of university. The number of […] LNCaP, NCI-H23, HCT-116, G-361 and U-251 cells are suspended in 0.2 ml HBSS or matrigel (50: 50, v/v), and are subcutaneously vaccinated to the side abdomen region of the mice. When the average diameters of the tumors are 7˜8 mm, the mice having tumor size of 100˜200 mm3 are chosen, and are given with treatment group of compound zhangnan-5 prepared with corn oil and are only given with control group of empty carrier (corn oil), respectively.
# (§3) In the oral feeding test, the compound zhangnan-5 (30 mg/kg) is dissolved in corn oil. Each day the mice are tube fed with 200 μl drug liquid in single dose (prepared with corn oil, containing 0.75 mg compound zhangnan-5) for 5 times a week and for 3 weeks. The control group is given placebo (corn oil) according to same method. The mice are raised separately, and are allowed to self-help feeding.
# (§4) The tumor is measured in two vertical directions every 3˜4 days.
# [2] = tested on: human melanoma cell G-361; assay: Human tumor xenograft model in nude mice; format: in vivo, nude mice (nu/nu); settings: G-361 xenograft, 30 mg/kg oral, 5 times a week for 3 weeks, end point 4 weeks; low = active
# Description: as §1, §2, §3, §4
# [3] = tested on: human colon cancer cell HCT-116; assay: Human tumor xenograft model in nude mice; format: in vivo, nude mice (nu/nu); settings: HCT-116 xenograft, 30 mg/kg oral, 5 times a week for 3 weeks, end point 4 weeks; low = active
# Description: as §1, §2, §3, §4
# [4] = tested on: human prostate cancer cell LnCAP; assay: Human tumor xenograft model in nude mice; format: in vivo, nude mice (nu/nu); settings: 30 mg/kg oral, 5 times a week for 3 weeks, end point 4 weeks, low = active
# Description: as §1, §2, §3, §4
# [5] = tested on: human lung cancer cell NCI-H23; assay: Human tumor xenograft model in nude mice; format: in vivo, nude mice (nu/nu); settings: 30 mg/kg oral, 5 times a week for 3 weeks, end point 4 weeks, low = active
# Description: as §1, §2, §3, §4
# [6] = Pharmacokinetics of zhangnan-5 in mice; format: in vivo; settings: both sexes, BlebC, mouse, oral, 100 mg/kg single dose, plasma, average +/− standard deviation
# Experimental: (5) Pharmacokinetics research of the compound zhangnan-5 in mice body: (see Singh S S, Shah H, Gupta S, Jain M, Sharma K, Thakkar P, Shah R. Liquid chromatography—electrospray ionisation mass spectrometry method for the determination of escitalopram in human plasma and its application in bioequivalence study. J Chromatogr B Analyt Technol Biomed Life Sci. 2004 Nov. 25; 811 (2):209-15).
# Four 8-week old BlebC mice (two male and two female) are used, feeding with the compound zhangnan-5 of 100 mg/kg for single dose. At 0.5, 1, 3, 6, 12, 24, 48, and 72 hours upon mouth feeding the drug, blood is collected via vena ophthalmica and blood plasma is made, to determine the plasma concentration of the given compound zhangnan-5.
# [7] = Side effects in the xenograft studies; settings: tumor-bearing nude mice, 30 mg/kg oral
# Description: as §1, §2, §3
smiles,measurement,setting,value
C=C(C)C1CCC2(C(=O)O)CCC3(C)C(CCC4C5(C)CCC(=O)C(C)(CO)C5CCC43C)C12 (stereo not drawn) [zhangnan-5],T/C of relative tumor volume (treated/control × 100),[1],12.5%
same,TGI (T/C×100 of relative tumor volume),[2],10.8%
same,TGI (T/C×100 of relative tumor volume),[3],6.9%
same,T/C of relative tumor volume (%),[4],5%
same,TGI (T/C×100 of relative tumor volume),[5],0%
same,Cmax,[6],65 µM
same,Tmax,[6],1.42 h
same,half-life,[6]; read-out: T½ (converted),11.5 h
same,"side effects, including changes in weight",[7],no obvious side effects have been found

# From patent publication US20120302530A1, “23-HYDROXY-BETULINIC ACID DERIVATIVES, PREPARATION METHODS AND USES THEREOF” (priority 2009, published 2012)
